# Tests used:
# Assay in all cases: relative viability (nuclei count vs DMSO), 5 days (fraction); higher = more cells survive
# [1] = compound: COc1cc2nc(N3CCCN(C)CC3)nc(NC3CCN(Cc4ccccc4)CC3)c2cc1OC + C[C@]1(O)C[C@@H](c2nc(-c3ccc4ccc(-c5ccccc5)nc4c3)c3c(N)nccn32)C1 [Linsitinib] (partner 1 µM)
# Method in brief: (§1)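 Lung cancer cell lines in 1536-well plates were dosed by pin tool the day after seeding, either with one drug alone or with a fixed anchor-drug dose plus five library-drug doses (not always all listed) in √10 steps. After 5 days, cells were fixed and their nuclei stained in one step (final 0.05% Triton X-100, 1% formaldehyde, 1 ug/ml Hoechst), then counted on 4× images. Relative viability is the nuclei count in treated wells divided by that in vehicle wells. Values are medians of duplicate plates.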
# [2] = compound: Cc1cc([C@@H](C)Nc2ccccc2C(=O)O)c2nc(N3CCOCC3)cc(=O)n2c1 [AZD6482] + Nc1ncn([C@H]2C[C@H](O)[C@@H](CO)O2)c(=O)n1 [Decitabine] (partner 2 µM)
# Method in brief: as §1
# [3] = compound: COc1cc2nc(N3CCCN(C)CC3)nc(NC3CCN(Cc4ccccc4)CC3)c2cc1OC + C[C@@H](Oc1cc(-c2cnn(C3CCNCC3)c2)cnc1N)c1c(Cl)ccc(F)c1Cl [Crizotinib] (partner 1 µM)
# Method in brief: as §1
# [4] = compound: Cc1cc([C@@H](C)Nc2ccccc2C(=O)O)c2nc(N3CCOCC3)cc(=O)n2c1 [AZD6482] + CC(=O)c1c(C)c2cnc(Nc3ccc(N4CCNCC4)cn3)nc2n(C2CCCC2)c1=O [Palbociclib] (partner 0.5 µM)
# Method in brief: as §1
Cell Line,relative viability ([1]; first compound 0.2 µM),relative viability ([1]; first compound 0.6325 µM),relative viability ([1]; first compound 2 µM),relative viability ([1]; first compound 6.325 µM),relative viability ([2]; first compound 0.08 µM),relative viability ([2]; first compound 0.253 µM),relative viability ([2]; first compound 0.8 µM),relative viability ([2]; first compound 2.53 µM),relative viability ([2]; first compound 8 µM),relative viability ([3]; first compound 0.2 µM),relative viability ([3]; first compound 0.6325 µM),relative viability ([3]; first compound 2 µM),relative viability ([3]; first compound 6.325 µM),relative viability ([4]; first compound 0.08 µM),relative viability ([4]; first compound 0.253 µM),relative viability ([4]; first compound 0.8 µM),relative viability ([4]; first compound 2.53 µM),relative viability ([4]; first compound 8 µM)
201T,1.06,1.03,1.04,1,0.855,0.763,0.844,0.816,0.812,0.995,1.1,1.04,0.995,0.351,0.354,0.309,0.326,0.347
A549,0.648,0.549,0.713,0.684,0.27,0.12,0.209,,0.347,0.803,0.638,0.966,0.736,,,,,
A-427,1.13,1.06,1.13,1.18,0.479,0.53,0.547,0.512,0.483,0.861,0.781,1.04,0.838,0.462,0.528,0.495,0.502,0.553
ABC-1,0.815,0.66,0.871,0.936,0.902,1.14,0.985,1.26,0.947,1.01,1.01,1.05,1.15,0.603,0.79,0.664,0.662,0.544
BEN,0.914,0.949,1.04,1.01,0.621,0.533,0.767,0.509,0.581,0.923,0.892,0.944,0.963,0.442,0.452,0.446,0.449,0.466
CAL-12T,0.745,0.829,0.944,0.726,,,,,,0.529,0.464,0.753,0.477,0.416,0.314,0.343,0.518,0.286
COR-L23,0.966,1.02,1.05,1,0.418,0.386,0.456,0.396,0.366,0.471,0.562,0.711,0.673,0.223,0.28,0.305,0.338,0.224
COR-L 105,1.09,0.888,0.833,0.628,0.67,0.68,0.628,0.601,0.559,0.653,0.872,0.878,0.455,0.419,0.434,0.434,0.492,0.376
Calu-6,0.881,0.903,1.02,0.962,,,,,,0.75,0.676,0.814,0.67,,,,,
ChaGo-K-1,,,,,0.502,0.494,0.489,0.481,0.534,1.18,1.11,1.14,1.09,0.948,0.901,0.926,0.919,0.934
EBC-1,0.887,0.879,1.09,0.753,,,,,,0.241,0.181,0.147,0.177,,,,,
EKVX,0.986,0.922,1.07,0.891,0.334,0.278,0.312,0.266,0.244,1.08,0.887,1.05,0.9,0.283,0.325,0.342,0.279,0.298
EMC-BAC-2,0.799,0.815,0.903,0.787,0.938,0.956,0.994,0.778,0.908,0.729,0.747,0.843,0.824,0.494,0.491,0.518,0.46,0.429
EPLC-272H,1.25,1.22,1.02,1.1,0.313,0.325,0.321,0.216,0.341,0.811,0.915,1.05,0.785,0.297,0.292,0.328,0.332,0.244
H3255,0.983,0.992,1.04,0.998,0.474,0.531,0.539,0.388,0.472,0.781,0.894,1.03,0.856,0.324,0.33,0.306,0.339,0.339
HARA,0.798,0.889,1,0.948,0.495,0.511,0.455,0.43,0.602,1.01,1.02,1.18,1.13,0.182,0.199,0.368,0.247,0.171
HCC-15,0.895,0.903,0.95,0.734,0.648,0.614,0.571,0.488,0.556,0.817,0.82,0.823,0.711,0.652,0.631,0.77,0.676,0.633
HCC-44,0.688,0.549,0.786,0.695,0.895,0.937,0.978,1,0.859,0.839,0.721,0.813,0.819,0.858,0.988,1.04,1.05,1.26
HCC-78,0.427,0.416,0.482,0.348,0.555,0.462,0.646,0.474,0.442,0.333,0.377,0.332,0.352,0.402,0.449,0.4,0.378,0.427
HCC-366,0.68,0.642,0.694,0.586,0.309,0.302,0.313,0.304,0.345,0.566,0.515,0.644,0.567,0.334,0.367,0.385,0.35,0.229
HCC-827,1,0.969,0.967,0.941,0.341,0.301,0.342,0.267,0.264,0.886,0.944,0.917,0.918,0.437,0.504,0.435,0.378,0.229
HOP-62,0.878,0.992,1.03,0.7,0.197,0.239,0.229,0.265,0.209,0.936,0.822,0.764,0.943,0.504,0.525,0.486,0.457,0.407

Cell Line,relative viability ([1]; first compound 0.2 µM),relative viability ([1]; first compound 0.6325 µM),relative viability ([1]; first compound 2 µM),relative viability ([1]; first compound 6.325 µM),relative viability ([2]; first compound 0.08 µM),relative viability ([2]; first compound 0.253 µM),relative viability ([2]; first compound 0.8 µM),relative viability ([2]; first compound 2.53 µM),relative viability ([2]; first compound 8 µM),relative viability ([3]; first compound 0.2 µM),relative viability ([3]; first compound 0.6325 µM),relative viability ([3]; first compound 2 µM),relative viability ([3]; first compound 6.325 µM),relative viability ([4]; first compound 0.08 µM),relative viability ([4]; first compound 0.253 µM),relative viability ([4]; first compound 0.8 µM),relative viability ([4]; first compound 2.53 µM),relative viability ([4]; first compound 8 µM)
IA-LM,0.724,0.5,0.661,0.458,,,,,,,0.802,0.926,0.42,,,,,
LC-2-ad,0.889,0.818,0.891,0.833,0.799,0.71,0.811,0.661,0.635,0.398,0.484,0.475,0.43,0.478,0.539,0.537,0.521,0.399
LCLC-97TM1,0.176,,0.159,0.195,0.218,0.204,0.196,,0.213,0.252,,0.599,0.313,0.167,0.225,0.188,,0.172
LCLC-103H,1.1,1.13,1.28,1.04,0.597,0.682,0.677,0.716,0.519,1,0.973,1.14,1.06,0.48,0.475,0.47,0.265,0.353
LK-2,0.472,0.539,0.624,0.644,0.34,0.315,0.288,0.241,0.301,0.233,0.237,0.235,0.284,0.732,0.698,0.688,0.54,0.342
LOU-NH91,0.93,0.978,0.669,0.979,0.753,0.828,0.788,0.661,0.7,0.701,0.742,0.668,0.778,0.537,0.557,0.552,0.49,0.542
LU99A,0.628,0.537,0.552,0.549,0.803,0.858,0.968,0.801,0.775,0.563,0.576,0.553,0.56,0.373,0.368,0.397,0.353,0.311
LXF-289,0.956,0.954,0.98,0.923,0.356,0.422,0.36,0.356,0.369,0.812,0.8,0.824,0.786,0.565,0.605,0.634,0.631,0.55
NCI-H522,,,,,0.627,0.6,0.586,0.585,0.755,,,,,1.07,0.933,0.691,0.805,0.825
NCI-H596,1.12,1.02,1.17,0.992,0.865,0.937,0.972,1.01,0.946,0.998,1.09,0.988,0.933,,,,,
NCI-H1299,1.01,0.939,1.1,0.97,,,,,,0.945,0.976,0.94,0.909,,,,,
NCI-H1395,1.16,1.13,0.912,1.12,0.584,0.601,0.636,0.496,0.489,,,,,0.49,0.486,0.482,0.401,0.456
NCI-H1563,1.29,1.19,1.19,1.16,,,,,,0.829,0.853,0.809,0.794,,,,,
NCI-H1648,,,,,0.502,0.453,0.472,,0.48,,,,,0.313,0.275,0.265,,0.242
NCI-H1650,,,,,0.381,0.571,0.544,0.584,0.474,1,0.903,1.2,0.892,0.312,0.271,0.269,0.267,0.288
NCI-H1703,0.593,0.398,0.533,0.69,,,,,,1,0.45,0.868,0.526,,,,,
NCI-H1793,0.912,1.02,1.21,0.959,0.419,0.429,0.313,0.297,0.271,,,,,0.243,0.215,0.271,0.215,0.225
NCI-H2170,,,,,0.427,0.443,0.432,0.423,0.442,1.19,1.17,1.23,1.24,0.36,0.387,0.387,0.384,0.347
NCI-H2228,0.59,0.587,0.83,0.476,,,,,,0.529,0.396,0.479,0.334,0.374,0.565,0.682,0.653,0.679
NCI-H2342,,,,,0.636,0.643,0.736,0.568,0.587,,,,,0.536,0.499,0.506,0.54,0.448
SW 900,,,,,0.412,0.419,0.45,0.418,0.434,,,,,0.474,0.434,0.348,0.355,0.389
